Patent US5373040A, “Amorphous solid modification of 2,2',2"-nitrilo[triethyl-tris-(3,3',5,5'-tetra-tert-butyl-1,1'-biphenyl- 2,2'-diyl)phosphite]” (Ciba-Geigy Corporation, priority 1993, dated 1994)

How the values were obtained:
[1] = Process stabilization of polypropylene: yellowness index of plaques (ASTM D1925); conditions: in the presence of a representative phenolic antioxidant; versus prior art compound of U.S. Pat. No. 4,318,845
Excerpt: The test additives are incorporated into the polypropylene by dry blending or, when the additive is a liquid, using a minimum amount of methylene chloride solvent. The solvent is then removed by evaporation under reduced pressure.

[2] = Solubility in LLDPE film by diffusion-in, X-ray fluorescence; assay type: physicochemical
Method: Experiments are carried out to determine the solubility of the instant compound into linear low density polyethylene (LLDPE) films at 20° C., 40° C. and 60° C. by diffusion-in of a relatively homogeneous particle size (<70 microns) of the test sample suspended in silicon oil.
Each sample is carefully ground with a mortar and pestle and the particle size below 70 microns is separated by sieving with a 200 mesh screen. The powder is then suspended in silicon oil (polydimethylsiloxane, L-45, Union Carbide Chemicals) at a concentration of approximately 38% (wt/wt). A few drops of this suspension is placed on a 10 mil (0.254 mm) thick, 2"×2" (5.08 cm×5.08 cm) compression molded film and a second film of the same dimension is placed on top. The films are gently pressed together so that the suspension forms a thin liquid layer between the polymer films. Excess suspension is removed and the procedure is repeated till a stack of eight films (six films for evaluation) are prepared. The stack is then placed between two 2.5"×2.5" (6.35 cm×6.35 cm) ceramic tiles and wrapped in aluminum foil and held together with a G-clamp. Each stack is aged at 20° C., 40° C. and 60° C. under a nitrogen atmosphere. At specified intervals, a single film is removed from the stack and the excess suspension is washed from the film with hexane. The film is then analyzed by X-ray fluorescence for total phosphorus content. LLDPE containing 0, 1000 ppm and 2000 ppm of the test compound are used as standard controls for this X-ray fluorescence method.

[3] = Stabilization of unsaturated elastomer: time until onset of crosslinking; conditions: 0.5% by weight, 150° C., 60 rpm; versus unstabilized SBR
Method: The instant compound of Example 1 is evaluated in an emulsion of SBR (cold polymerized, 23.5% styrene with a 52 Mooney Viscosity). The unstabilized SBR (60 g) is added to the mixing chamber of a Brabender Plasticorder set at 150° C. and 60 rpm. After 30 seconds, 0.5% by weight of the compound of instant Example 1 is added to the chamber. Stability of the SBR is determined by the time until onset of crosslinking of the rubber as indicated by an increase in the torque curve.

[4] = Stabilization of polycarbonate: yellowness index; conditions: 0.08 weight percent plus 0.3 weight percent TINUVIN 329; versus UV absorber alone
Method: Additive free bisphenol A polycarbonate (LEXAN® 141-111N, General Electric) is dried and blended with 0.3 weight percent of a benzotriazole UV absorber TINUVIN® 329, Ciba-Geigy) and 0.08 weight percent of instant compound of Example 1. The mixture is extruded and pelletized at 550° F. (288° C.) on a 1" (2.54 cm) single screw extruder. Injection molded plaques (2"×2"×125 mil; 5.08 cm×5.08 cm×3.175 mm) are prepared in a BOY 30M injection molder at 560° F. (293° C.) with a mold temperature of 150° C. The resulting plaques are measured for yellowness index (YI) using ASTM D 1925-70.

[5] = Stabilization of poly(butylene terephthalate): intrinsic viscosity; conditions: 0.3% by weight; second pass extrudate and injection molded plaques; versus PBT containing no stabilizer
Method: Poly(butylene terephthalate), PBT (RYNITE® 9160, DuPont) is tumble blended with 0.3% by weight of the compound of instant Example 1. The polymer is then extruded and pelletized at 260° C. A portion of the collected pellets are reextruded under the same conditions for a second pass. The remainder from the first extrusion is injection molded into 2"×2"×125 mil (5.08 cm×5.08 cm×3.175 mm) plaques at 540° F. (282° C.) with a 100° C. mold temperature in a BOY 30M molder. Intrinsic viscosities of the second pass extrudate and the injection molded plaques are determined.

[6] = Stabilization of 6,6-nylon: yellowness index; conditions: 0.5% by weight; versus unstabilized control plaques
Method: 6,6-Nylon (ZYTEL® 101, DuPont) is thoroughly dried in a vacuum oven and tumble blended with 0.5% by weight of the compound of instant Example 1. The polyamide is extruded on a 1" (2.54 cm) MPM extruder at 575° F. (302° C.). The collected pellets are injection molder at 575° F. (302° C.) with the mold at 150° C. in a BOY 30M injection molder. The plaques obtained are measured for yellowness index (YI) values using ASTM D1925-70.

[7] = Stabilization of ABS: yellowness index; conditions: 0.25 g per 100 g of ABS; air oven at 180° C. for 45 minutes; versus unstabilized ABS resin
Method: A solution of 0.25 g of the instant compound of Example 1 in 40 ml of hexane/methanol is added to a rapidly stirred suspension of 100 g of ABS (acrylonitrile/butadiene/styrene terpolymer) in 600 g of water. The suspension is filtered and dried under vacuum at 40° C. for 40 hours. To the dried powder is added 2% by weight of titanium dioxide and 1% by weight of N,N'-ethylenebisstearamide on a two roll mill at 180° C. over four minutes. Compression molded plaques (0.8 mm) are prepared at 175° C. and placed in an air oven at 180° C. for 45 minutes. The color of said plaques are determined as yellowness index values using ASTM D1925-70.

## CC(C)(C)c1cc(C(C)(C)C)c2op(OCCN(CCOp3oc4c(C(C)(C)C)cc(C(C)(C)C)cc4c4cc(C(C)(C)C)cc(C(C)(C)C)c4o3)CCOp3oc4c(C(C)(C)C)cc(C(C)(C)C)cc4c4cc(C(C)(C)C)cc(C(C)(C)C)c4o3)oc3c(C(C)(C)C)cc(C(C)(C)C)cc3c2c1 [Example 1, 2,2',2"-nitrilo[triethyl-tris-(3,3',5,5'-tetra-tert-butyl-1,1'-biphenyl-2,2'-diyl)phosphite]]
[1]
  stabilizing polypropylene against discoloration (change in yellowness index): equal or more effective
[2]; interval 15 (time unit not given)
  Solubility of Compound in LLDPE at 20° C.: 7200 ppm
[2]; interval 28 (time unit not given)
  Solubility of Compound in LLDPE at 20° C.: 5100 ppm
[2]; interval 35 (time unit not given)
  Solubility of Compound in LLDPE at 20° C.: 3800 ppm
[2]; interval 44 (time unit not given)
  Solubility of Compound in LLDPE at 20° C.: 4700 ppm
[2]; interval 10 (time unit not given)
  Solubility of Compound in LLDPE at 40° C.: 2500 ppm
[2]; interval 17 (time unit not given)
  Solubility of Compound in LLDPE at 40° C.: 2100 ppm
[2]; interval 25 (time unit not given)
  Solubility of Compound in LLDPE at 40° C.: 2400 ppm
[2]; interval 34 (time unit not given)
  Solubility of Compound in LLDPE at 40° C.: 1700 ppm
[2]; interval 40 (time unit not given)
  Solubility of Compound in LLDPE at 40° C.: 1900 ppm
[2]; interval 47 (time unit not given)
  Solubility of Compound in LLDPE at 40° C.: 2200 ppm
[2]; third section, interval 6 (time unit not given)
  Solubility of Compound in LLDPE at 20° C.: 3400 ppm
[2]; third section, interval 14 (time unit not given)
  Solubility of Compound in LLDPE at 20° C.: 4000 ppm
[2]; third section, interval 22 (time unit not given)
  Solubility of Compound in LLDPE at 20° C.: 4500 ppm
[2]; third section, interval 28 (time unit not given)
  Solubility of Compound in LLDPE at 20° C.: 3800 ppm
[2]; third section, interval 37 (time unit not given)
  Solubility of Compound in LLDPE at 20° C.: 4100 ppm
[2]; versus prior art compound of Example 4 of U.S. Pat. No. 4,318,845
  solubility in LLDPE: far more soluble
[3]
  induction time till crosslinking occurs: longer induction time
[4]
  yellowness index (YI): lower YI values
[5]
  retention of intrinsic viscosity value: better retention of intrinsic viscosity value
[6]
  yellowness index (YI): lower YI values (less discoloration)
[7]
  yellowness index: lower yellowness index values (less discoloration)
